Reference: ChEMBL document CHEMBL5291721, “A preclinical secondary pharmacology resource illuminates target-adverse drug reaction associations of marketed drugs” (Nat Commun, 2023)

How the values were obtained:
[1] = target: T1, Alpha-1A adrenergic receptor (Homo sapiens, UniProt P35348); format: functional, cell-based
T1 sequence (P35348 whole entry): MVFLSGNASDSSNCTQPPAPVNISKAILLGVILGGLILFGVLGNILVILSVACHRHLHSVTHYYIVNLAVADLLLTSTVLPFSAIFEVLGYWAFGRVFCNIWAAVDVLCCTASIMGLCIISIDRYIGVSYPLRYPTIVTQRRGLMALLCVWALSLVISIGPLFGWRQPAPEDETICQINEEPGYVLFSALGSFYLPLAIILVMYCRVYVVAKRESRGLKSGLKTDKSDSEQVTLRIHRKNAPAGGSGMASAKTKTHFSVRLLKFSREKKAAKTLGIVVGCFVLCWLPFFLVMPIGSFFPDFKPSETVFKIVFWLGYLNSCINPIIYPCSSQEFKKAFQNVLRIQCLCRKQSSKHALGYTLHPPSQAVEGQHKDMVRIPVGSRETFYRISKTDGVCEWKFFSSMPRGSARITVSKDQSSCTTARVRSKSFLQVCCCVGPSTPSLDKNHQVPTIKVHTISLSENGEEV

[2] = target: T2, Alpha-2A adrenergic receptor (Homo sapiens, UniProt P08913)
T2 sequence (P08913 whole entry): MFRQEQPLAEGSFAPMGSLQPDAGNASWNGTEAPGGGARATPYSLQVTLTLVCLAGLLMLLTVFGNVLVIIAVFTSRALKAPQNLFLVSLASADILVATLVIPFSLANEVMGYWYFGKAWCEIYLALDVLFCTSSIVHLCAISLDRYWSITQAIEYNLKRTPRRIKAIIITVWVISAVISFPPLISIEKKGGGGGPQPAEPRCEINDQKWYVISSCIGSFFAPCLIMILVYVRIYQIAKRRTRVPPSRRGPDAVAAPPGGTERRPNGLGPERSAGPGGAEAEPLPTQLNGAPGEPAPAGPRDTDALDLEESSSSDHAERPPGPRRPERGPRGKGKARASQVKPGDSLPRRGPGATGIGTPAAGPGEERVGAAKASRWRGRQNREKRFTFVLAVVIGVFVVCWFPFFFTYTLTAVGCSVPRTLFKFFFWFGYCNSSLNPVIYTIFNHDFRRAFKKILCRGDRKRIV

Estrogen receptor = target: T3, Estrogen receptor (Homo sapiens, UniProt P03372)
T3 sequence (P03372 whole entry): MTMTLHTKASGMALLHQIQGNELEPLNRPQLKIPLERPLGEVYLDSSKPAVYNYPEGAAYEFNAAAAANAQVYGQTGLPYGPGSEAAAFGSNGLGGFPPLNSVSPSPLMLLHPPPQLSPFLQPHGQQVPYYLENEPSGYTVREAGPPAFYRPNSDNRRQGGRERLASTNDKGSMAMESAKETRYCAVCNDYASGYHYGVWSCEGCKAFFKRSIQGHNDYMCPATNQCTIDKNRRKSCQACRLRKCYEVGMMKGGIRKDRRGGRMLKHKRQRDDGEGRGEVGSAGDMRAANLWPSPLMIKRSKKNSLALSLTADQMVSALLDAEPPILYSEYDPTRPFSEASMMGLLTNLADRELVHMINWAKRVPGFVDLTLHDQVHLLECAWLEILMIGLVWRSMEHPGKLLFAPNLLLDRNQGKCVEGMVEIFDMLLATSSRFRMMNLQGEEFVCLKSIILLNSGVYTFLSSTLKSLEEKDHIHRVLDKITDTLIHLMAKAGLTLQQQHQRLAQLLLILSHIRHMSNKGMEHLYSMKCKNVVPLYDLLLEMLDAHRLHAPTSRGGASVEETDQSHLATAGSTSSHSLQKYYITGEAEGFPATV

[3] = target: T4, 5-hydroxytryptamine receptor 1A (Homo sapiens, UniProt P08908)
T4 sequence (P08908 whole entry): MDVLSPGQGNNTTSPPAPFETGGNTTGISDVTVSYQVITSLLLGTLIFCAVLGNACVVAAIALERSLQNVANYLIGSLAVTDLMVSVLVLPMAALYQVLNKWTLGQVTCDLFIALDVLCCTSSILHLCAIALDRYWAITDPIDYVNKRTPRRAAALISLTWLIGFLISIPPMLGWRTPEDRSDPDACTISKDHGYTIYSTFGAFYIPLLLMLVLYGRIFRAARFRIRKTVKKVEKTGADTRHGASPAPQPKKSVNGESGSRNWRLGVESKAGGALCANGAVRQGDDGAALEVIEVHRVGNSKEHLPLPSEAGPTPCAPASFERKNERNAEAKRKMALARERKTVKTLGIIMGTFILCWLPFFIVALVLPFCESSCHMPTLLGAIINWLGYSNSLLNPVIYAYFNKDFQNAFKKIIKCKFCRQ

[4] = target: T5, Amine oxidase [flavin-containing] A (Homo sapiens, UniProt P21397); format: functional
T5 sequence (P21397 whole entry): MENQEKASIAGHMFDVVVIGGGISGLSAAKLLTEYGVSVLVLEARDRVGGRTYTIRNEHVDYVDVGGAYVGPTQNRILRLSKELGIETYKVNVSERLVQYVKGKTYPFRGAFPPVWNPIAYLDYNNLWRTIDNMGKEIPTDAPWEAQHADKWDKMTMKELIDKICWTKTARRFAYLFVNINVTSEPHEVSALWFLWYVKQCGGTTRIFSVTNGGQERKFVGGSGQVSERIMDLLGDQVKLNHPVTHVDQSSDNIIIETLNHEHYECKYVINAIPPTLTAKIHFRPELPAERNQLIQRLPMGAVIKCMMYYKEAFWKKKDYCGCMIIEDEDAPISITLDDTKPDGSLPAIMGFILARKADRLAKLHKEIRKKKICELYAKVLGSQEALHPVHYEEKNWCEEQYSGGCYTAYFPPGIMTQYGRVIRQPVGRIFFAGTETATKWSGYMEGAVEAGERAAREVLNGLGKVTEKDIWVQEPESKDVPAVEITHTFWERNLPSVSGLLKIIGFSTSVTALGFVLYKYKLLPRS

[5] = target: cGMP-inhibited 3',5'-cyclic phosphodiesterase 3A (Homo sapiens, UniProt Q14432); format: functional
[6] = target: 3',5'-cyclic-AMP phosphodiesterase 4A (Homo sapiens, UniProt P27815); format: functional
[7] = target: Sodium-dependent noradrenaline transporter (Homo sapiens, UniProt P23975)
Also: assay procedure not described here.

Chain of cGMP-inhibited 3',5'-cyclic phosphodiesterase 3A (Q14432 whole entry): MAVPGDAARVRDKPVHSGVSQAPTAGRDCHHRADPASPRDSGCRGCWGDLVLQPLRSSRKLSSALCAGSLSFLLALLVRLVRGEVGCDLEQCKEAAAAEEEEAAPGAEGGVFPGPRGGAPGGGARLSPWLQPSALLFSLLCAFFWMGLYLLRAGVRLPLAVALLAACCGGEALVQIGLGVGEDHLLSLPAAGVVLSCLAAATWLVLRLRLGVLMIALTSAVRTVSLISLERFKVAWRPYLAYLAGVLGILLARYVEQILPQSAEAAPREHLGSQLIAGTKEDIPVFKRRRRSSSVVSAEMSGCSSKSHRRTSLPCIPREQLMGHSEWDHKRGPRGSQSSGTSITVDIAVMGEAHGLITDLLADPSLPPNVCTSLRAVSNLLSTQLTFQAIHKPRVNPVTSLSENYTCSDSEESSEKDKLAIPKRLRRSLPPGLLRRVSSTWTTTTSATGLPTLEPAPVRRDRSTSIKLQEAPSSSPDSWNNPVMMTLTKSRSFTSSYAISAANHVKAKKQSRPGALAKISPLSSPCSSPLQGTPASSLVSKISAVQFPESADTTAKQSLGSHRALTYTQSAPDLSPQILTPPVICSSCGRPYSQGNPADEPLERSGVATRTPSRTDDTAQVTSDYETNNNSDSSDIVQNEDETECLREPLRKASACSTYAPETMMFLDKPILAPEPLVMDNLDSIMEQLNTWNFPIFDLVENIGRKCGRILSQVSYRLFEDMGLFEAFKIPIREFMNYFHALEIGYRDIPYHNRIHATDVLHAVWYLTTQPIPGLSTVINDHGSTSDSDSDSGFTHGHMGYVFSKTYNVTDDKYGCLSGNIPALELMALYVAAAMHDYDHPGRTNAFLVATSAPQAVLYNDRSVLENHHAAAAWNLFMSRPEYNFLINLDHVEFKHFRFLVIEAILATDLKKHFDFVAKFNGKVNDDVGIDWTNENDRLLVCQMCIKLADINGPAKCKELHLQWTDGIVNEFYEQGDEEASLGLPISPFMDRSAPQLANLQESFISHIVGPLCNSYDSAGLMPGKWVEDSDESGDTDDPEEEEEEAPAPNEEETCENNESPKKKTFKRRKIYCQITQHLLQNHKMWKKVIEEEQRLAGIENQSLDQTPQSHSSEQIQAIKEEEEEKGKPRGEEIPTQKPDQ
Chain of 3',5'-cyclic-AMP phosphodiesterase 4A (P27815 whole entry): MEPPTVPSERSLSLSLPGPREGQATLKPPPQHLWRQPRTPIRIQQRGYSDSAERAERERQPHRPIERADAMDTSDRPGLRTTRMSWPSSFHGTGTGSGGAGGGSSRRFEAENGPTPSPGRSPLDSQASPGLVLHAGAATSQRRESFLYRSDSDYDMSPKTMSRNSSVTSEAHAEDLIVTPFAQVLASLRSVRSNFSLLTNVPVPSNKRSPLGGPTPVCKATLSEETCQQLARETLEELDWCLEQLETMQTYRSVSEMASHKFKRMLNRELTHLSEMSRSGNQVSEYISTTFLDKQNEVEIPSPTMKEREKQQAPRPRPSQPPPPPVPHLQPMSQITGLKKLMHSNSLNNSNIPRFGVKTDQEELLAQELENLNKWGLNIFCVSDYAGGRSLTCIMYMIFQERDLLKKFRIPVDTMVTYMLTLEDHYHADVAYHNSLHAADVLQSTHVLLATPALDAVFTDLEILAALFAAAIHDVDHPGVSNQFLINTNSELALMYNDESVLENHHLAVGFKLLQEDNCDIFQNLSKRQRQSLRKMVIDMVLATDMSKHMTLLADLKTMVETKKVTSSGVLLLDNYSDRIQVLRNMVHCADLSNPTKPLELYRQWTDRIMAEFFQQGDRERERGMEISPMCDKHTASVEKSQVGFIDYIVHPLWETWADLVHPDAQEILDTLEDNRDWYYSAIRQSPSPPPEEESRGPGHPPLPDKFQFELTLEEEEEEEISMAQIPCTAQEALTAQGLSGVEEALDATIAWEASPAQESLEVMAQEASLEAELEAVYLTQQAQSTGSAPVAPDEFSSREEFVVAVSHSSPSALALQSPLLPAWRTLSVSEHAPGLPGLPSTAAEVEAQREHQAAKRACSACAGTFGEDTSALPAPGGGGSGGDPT
Chain of Sodium-dependent noradrenaline transporter (P23975 whole entry): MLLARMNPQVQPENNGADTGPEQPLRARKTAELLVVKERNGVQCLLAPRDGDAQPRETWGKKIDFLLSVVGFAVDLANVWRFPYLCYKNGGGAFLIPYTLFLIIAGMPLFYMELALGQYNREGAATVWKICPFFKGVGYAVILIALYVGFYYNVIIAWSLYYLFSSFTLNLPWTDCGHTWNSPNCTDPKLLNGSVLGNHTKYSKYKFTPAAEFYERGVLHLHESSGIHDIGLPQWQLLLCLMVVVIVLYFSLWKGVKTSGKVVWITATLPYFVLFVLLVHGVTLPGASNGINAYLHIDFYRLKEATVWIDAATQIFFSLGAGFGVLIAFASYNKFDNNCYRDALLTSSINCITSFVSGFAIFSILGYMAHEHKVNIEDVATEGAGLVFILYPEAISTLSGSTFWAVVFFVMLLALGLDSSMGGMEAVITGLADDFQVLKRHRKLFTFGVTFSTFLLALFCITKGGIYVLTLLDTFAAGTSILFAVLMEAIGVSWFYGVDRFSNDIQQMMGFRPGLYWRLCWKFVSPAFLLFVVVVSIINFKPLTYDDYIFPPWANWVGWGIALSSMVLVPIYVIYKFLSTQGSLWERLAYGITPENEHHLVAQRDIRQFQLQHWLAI

Row | Structure (SMILES) | AC50 [1] [µM] | AC50 [2] [µM] | AC50 (Estrogen receptor) [µM] | AC50 [3] [µM] | AC50 [4] [µM] | AC50 [5] [µM] | AC50 [6] [µM] | AC50 [7] [µM]
1 | C[C@@H]1C[C@H]2[C@@H]3C[C@H](F)C4=CC(=O)C(Cl)=C[C@]4(C)[C@@]3(F)[C@@H](O)C[C@]2(C)[C@@]1(O)C(=O)CO [HALOMETASONE] | > 30 | > 30 | > 30 | > 30 | > 30 | > 30 | > 30 | > 30
2 | CN(Cc1cc(Br)cc(Br)c1N)C1CCCCC1 [BROMHEXINE] | > 30 | > 30 | > 30 | > 30 | > 30 | > 30 | 26.3 | 22
3 | COc1ccc(-c2cc(=O)c3c(O)cc(O[C@@H]4O[C@H](CO[C@@H]5O[C@@H](C)[C@H](O)[C@@H](O)[C@H]5O)[C@@H](O)[C@H](O)[C@H]4O)cc3o2)cc1O [DIOSMIN] | > 30 | > 30 | > 30 | > 30 | > 30 | > 30 | > 30 | > 30
4 | CC1=NN(c2ccccc2)C(=O)C1 [EDARAVONE] | > 30 | > 30 | > 30 | > 30 | > 30 | > 30 | > 30 | > 30
5 | Cc1nc(-c2ccc(OCC(C)C)c(C#N)c2)sc1C(=O)O [FEBUXOSTAT] | > 30 | > 30 | > 30 | > 30 | > 30 | > 30 | 29 | > 30
6 | COc1ccc(CCC(C)NCC(O)c2ccc(O)c([S+](C)[O-])c2)cc1 (stereo not drawn) [SULFINALOL] | > 30 | > 30 | > 30 | 0.326 | > 30 | > 30 | > 30 | 10.6
